The text below walks through data of patent US20120122843A1, “Compounds and Their Use for Treatment of Amyloid Beta-Related Diseases” (ASTRAZENECA AB, priority 2010, published 2012).

Molecules are shown by their SMILES. Bounds are passed on as bounds.

The subject of one assay is Aβ42. The experiment in a line: Aβ42 release from HEK cells stably expressing APPswe (MSD electrochemiluminescence). Format: cell-based, Human. The following applies: 4-6 h incubation with test compound, Aβ42 secreted to cell medium. As for the experimental part: The level of activity of the compounds on Aβ formation was tested using the following method:
Compounds were diluted in 100% DMSO and stored at […] prior to use. Human Embryonic Kidney (HEK) cell line stably expressing APP with the Swedish mutation (APPswe) were cultured using Dulbecco's Modified Eagles medium (DMEM) supplied with […] glucose, Na-pyruvate and GlutaMAX with 10% FBS, 100 U/ml penicillin-streptomycin (PEST) respectively, 1× non-essential amino acids (NEAA), […] Hepes, 100 μg/ml Zeocine. Cells at about 80% confluence were washed with PBS, detached from culture flasks using 1× Trypsin/EDTA diluted in PBS, re-suspended in cell media and plated in 384-well poly-d-lysine coated cell culture plates at about 10000-15000 cells/well, in 25 μL cell media. Optionally, cryo-preserved cells (frozen and stored at −140° C. in 90% cell media and 10% DMSO) were thawed, washed and plated as above. Next the cells were incubated for 15-24 h at 37° C. and 5% CO2, after which cell medium was changed. Fresh medium containing test compound diluted ×200 from prepared compound plate was added to the cells before further incubation for 4-6 hours at 37° C. and 5% CO2. After incubation with test compound the amount of Aβ peptides, including Aβ42, Aβ40, Aβ39, Aβ38 and Aβ37, as well as total Aβ levels, secreted to cell medium was analyzed using the electrochemiluminescence assay technology from Meso Scale Discovery (MSD), in combination with specific antibodies raised against the different Aβ peptides. Aβ42, Aβ40 and Aβ38 antibodies were purchased from MSD and Aβ37 and Aβ39 were made in house. Total Aβ was measured using a combination of 6E10 and 4G8 anti Aβ antibodies from MSD. Potential cytotoxic effects of the compounds were usually assayed by measuring the ATP content (ViaLight) from cell lysate.

The test system of the next assay is Notch. The experiment in a line: Release and translocation of Notch intracellular domain into the nucleus, HEK/AENotch cells (NICD immunostaining, ImageXpress). Format: cell-based, Human. The following applies: 3 μM Lactacystin, 4-6 h incubation, nucleus/cytosol NICD fluorescence ratio. The method, then: The level of activity of the compounds on release and translocation of Notch intracellular domain into the cell nucleus was tested using the following method:
Compounds were diluted in 100% DMSO and stored at […] prior to use. Human Embryonic Kidney cell line overexpressing Notchl-E-human-myc construct (referred to as HEK/AENotch) were cultured in T75 cm^2 or T225 cm^2 cell culture flasks using Dulbecco's Modified Eagles medium (DMEM) supplemented with […] glucose, Na-pyruvate and GlutaMAX with 10% FBS, 100 U/ml penicillin-streptomycin (PEST) respectively, 1× non-essential amino acids (NEAA), […] Hepes and 100 μg/ml Hygromycin. Cells at about 80% confluence were washed with PBS, detached from the flask bottom using 1× Trypsin/EDTA diluted in PBS, re-suspended in cell media and plated in 384-well plates at about 10000 cells/well, in 25 μL cell media. Optionally, cryo-preserved cells (frozen and stored at −140° C. in 90% cell media and 10% DMSO) were thawed, washed and plated as above. Next the cells were incubated for 15-24 h at 37° C. and 5% CO2, after which cell medium was replaced with fresh medium containing 3 μM Lactacystin and test compound diluted ×200 from prepared compound plate giving 0.5% final DMSO concentration, and the highest compound concentration typically 25 μM. Cells were then incubated 4-6 h with test compound before being fixed, washed and immunostained with NICD antibody (rabbit Notch 1 (C-20)). Image acquisition of cytosolic/membrane and nuclear fluorescence as well as subsequent analysis of the nucleus and cytosolic fluorescence ratio was carried out using ImageXpress. Potential cytotoxic effects of the compounds were usually assayed by analysis of nucleus area or cell number.

The mark [1] stands for this setting: Homo sapiens, HEK293, HEK cells expressing APPswe.

Broadly, the IC50 is the concentration needed to halve the response being measured. For `COc1nc(Nc2ccc3c(n2)OC(CC(F)(F)F)CN(C)C3C)ccc1-c1cnn(C)c1` (single isomer, unassigned) [Example 34, N-(6-Methoxy-5-(1-methyl-1H-pyrazol-4-yl)pyridin-2-yl)-4,5-dimethyl-2-(2,2,2-trifluoroethyl)-2,3,4,5-tetrahydropyrido[3,2-f][1,4]oxazepin-8-amine], the IC50 in the assay on Aβ42 (HEK cells expressing APPswe) is 16 nM; in the assay on Notch, more than 25 µM.

In the case of `COc1nc(Nc2ccc3c(n2)OC(CC(F)(F)F)CN(C)C3C)ccc1-c1cnn(C)c1` (single isomer, unassigned) [Example 35, N-(6-Methoxy-5-(1-methyl-1H-pyrazol-4-yl)pyridin-2-yl)-4,5-dimethyl-2-(2,2,2-trifluoroethyl)-2,3,4,5-tetrahydropyrido[3,2-f][1,4]oxazepin-8-amine], the IC50 with Aβ42 (HEK cells expressing APPswe) was 12 nM; with Notch it was more than 25 µM.

Consider `COc1nc(Nc2ccc3c(n2)OC(CC(F)(F)F)CN(C)C3C)ccc1-c1cnn(C)c1` (single isomer, unassigned) [Example 36, N-(6-Methoxy-5-(1-methyl-1H-pyrazol-4-yl)pyridin-2-yl)-4,5-dimethyl-2-(2,2,2-trifluoroethyl)-2,3,4,5-tetrahydropyrido[3,2-f][1,4]oxazepin-8-amine], for which the IC50 in the assay on Aβ42 (HEK cells expressing APPswe) is 12 nM; in the assay with Notch, more than 25 µM.

For the compound `COc1nc(Nc2ccc3c(n2)OC(C2CC(F)(F)C2)CN(C)C3)ccc1-c1cnn(C)c1` (single isomer, unassigned) [Example 38, 2-(3,3-Difluorocyclobutyl)-N-(6-methoxy-5-(1-methyl-1H-pyrazol-4-yl)pyridin-2-yl)-4-methyl-2,3,4,5-tetrahydropyrido[3,2-f][1,4]oxazepin-8-amine], the 50% inhibitory concentration (IC50) in the assay with Aβ42 (HEK cells expressing APPswe) was 15 nM; in the assay on Notch it was more than 25 µM.

In the case of `COc1nc(Nc2ccc3c(n2)O[C@H](c2ccc(F)cn2)CN(C)C3C)ccc1-c1cnn(C)c1` (single isomer, unassigned) [Example 50], the figures for the half-maximal inhibitory concentration (IC50) with Aβ42 (HEK cells expressing APPswe) and in the assay with Notch were 60 nM and 2.31 µM, respectively.

On to `COc1nc(Nc2ccc3c(n2)O[C@H](c2ccc(F)cn2)CN(C)C3C)ccc1-c1cnn(C)c1` (single isomer, unassigned) [Example 51], for which the IC50 is 19 nM in the assay on Aβ42 (HEK cells expressing APPswe) and more than 25 µM in the assay on Notch.

As to `COc1nc(Nc2ccc3c(n2)OC(CCC(F)(F)F)CN(C)C3)ccc1-c1cnn(C)c1` (single isomer, unassigned; (+)) [Example 57, (+)-N-[6-Methoxy-5-(1-methylpyrazol-4-yl)-2-pyridyl]-4-methyl-2-(3,3,3-trifluoropropyl)-3,5-dihydro-2H-pyrido[3,2-f][1,4]oxazepin-8-amine], the IC50 with Aβ42 (HEK cells expressing APPswe) is 5 nM; in the assay with Notch it was more than 11.5 µM.

On to `COc1nc(Nc2ccc3c(n2)OC(c2nc(C)cs2)C(C)N(C)C3)ccc1-n1cnc(C)c1` (single isomer, unassigned; (+)) [Example 60, (+)-N-(6-Methoxy-5-(4-methyl-1H-imidazol-1-yl)pyridin-2-yl)-3,4-dimethyl-2-(4-methylthiazol-2-yl)-2,3,4,5-tetrahydropyrido[3,2-f][1,4]oxazepin-8-amine], for which the figures for the IC50 in the assay on Aβ42 (HEK cells expressing APPswe) and in the assay on Notch were 17 nM and more than 25 µM, respectively.

Consider `COc1nc(Nc2ccc3c(n2)OC(c2ncc(C)s2)CN(C)C3)ccc1-n1cnc(C)c1` (single isomer, unassigned; (+)) [Example 66, (+)-N-(6-Methoxy-5-(4-methyl-1H-imidazol-1-yl)pyridin-2-yl)-4-methyl-2-(5-methylthiazol-2-yl)-2,3,4,5-tetrahydropyrido[3,2-f][1,4]oxazepin-8-amine], for which the IC50 in the assay with Aβ42 (HEK cells expressing APPswe) is 38 nM; in the assay on Notch, more than 25 µM.

On to `COc1nc(Nc2ccc3c(n2)OC(CC(F)(F)F)CN(C)C3)ccc1-c1cnn(C)c1` (single isomer, unassigned; (-)) [Example 5, (−)-N-(6-Methoxy-5-(1-methyl-1H-pyrazol-4-yl)pyridin-2-yl)-4-methyl-2-(2,2,2-trifluoroethyl)-2,3,4,5-tetrahydropyrido[3,2-f][1,4]oxazepin-8-amine], for which the half-maximal inhibitory concentration (IC50) with Aβ42 (HEK cells expressing APPswe) was 21 nM; with Notch, more than 25 µM.

On to `COc1nc(Nc2ccc3c(n2)OC(c2nc(C)cs2)CN(C)C3)ccc1-c1cnn(C)c1` (single isomer, unassigned; (-)) [Example 11, (−)-N-(6-Methoxy-5-(1-methyl-1H-pyrazol-4-yl)pyridin-2-yl)-4-methyl-2-(4-methylthiazol-2-yl)-2,3,4,5-tetrahydropyrido[3,2-f][1,4]oxazepin-8-amine], for which the IC50 in the assay on Aβ42 (HEK cells expressing APPswe) amounted to 14 nM; with Notch (Homo sapiens), 1.44 µM.

Turning to `COc1nc(Nc2ccc3c(n2)O[C@H](c2ccc(F)cn2)CN(C)C3C)ccc1-n1cnc(C)c1` (single isomer, unassigned; (-)) [Example 52], the IC50 came out at 10 nM in the assay with Aβ42 (setting [1]) and 7.2 µM in the assay with Notch (Homo sapiens).

Consider `COc1nc(Nc2ccc3c(n2)O[C@H](c2ccc(F)cn2)CN(C)C3C)ccc1-n1cnc(C)c1` (single isomer, unassigned; (-)) [Example 53], for which the IC50 was 11 nM in the assay on Aβ42 (HEK cells expressing APPswe) and more than 7.9 µM with Notch.

Turning to `COc1nc(Nc2ccc3c(n2)OC(CCC(F)(F)F)CN(C)C3)ccc1-c1cnn(C)c1` (single isomer, unassigned; (-)) [Example 58, (−)-N-[6-Methoxy-5-(1-methylpyrazol-4-yl)-2-pyridyl]-4-methyl-2-(3,3,3-trifluoropropyl)-3,5-dihydro-2H-pyrido[3,2-f][1,4]oxazepin-8-amine], the IC50 with Aβ42 (HEK cells expressing APPswe) was 18 nM; in the assay on Notch, more than 25 µM.

Regarding `COc1nc(Nc2ccc3c(n2)OC(c2nc(C)cs2)C(C)N(C)C3)ccc1-n1cnc(C)c1` (single isomer, unassigned; (-)) [Example 59, (−)-N-(6-Methoxy-5-(4-methyl-1H-imidazol-1-yl)pyridin-2-yl)-3,4-dimethyl-2-(4-methylthiazol-2-yl)-2,3,4,5-tetrahydropyrido[3,2-f][1,4]oxazepin-8-amine], the half-inhibitory concentration (IC50) is 7 nM in the assay with Aβ42 (HEK cells expressing APPswe) and more than 25 µM in the assay on Notch (Homo sapiens).

As to `COc1nc(Nc2ccc3c(n2)OC(CCC(F)(F)F)CN(C)C3)ccc1-n1cnc(C)c1` (single isomer, unassigned; (-)) [Example 62, (−)-[6-Methoxy-5-(4-methyl-imidazol-1-yl)-pyridin-2-yl]-[6-methyl-8-(3,3,3-trifluoro-propyl)-5,6,7,8-tetrahydro-9-oxa-1,6-diaza-benzocyclohepten-2-yl]-amine], the IC50 with Aβ42 (HEK cells expressing APPswe) was 5 nM; in the assay with Notch, more than 25 µM.

As for `COc1nc(Nc2ccc3c(n2)OC(c2ncc(C)s2)CN(C)C3)ccc1-n1cnc(C)c1` (single isomer, unassigned; (-)) [Example 65, (−)-N-(6-Methoxy-5-(4-methyl-1H-imidazol-1-yl)pyridin-2-yl)-4-methyl-2-(5-methylthiazol-2-yl)-2,3,4,5-tetrahydropyrido[3,2-f][1,4]oxazepin-8-amine], the half-inhibitory concentration (IC50) is 9 nM in the assay on Aβ42 (HEK cells expressing APPswe) and more than 25 µM in the assay with Notch (Homo sapiens).

Take `COc1nc(Nc2ccc3c(n2)OC(CC(CF)CF)CN(C)C3)ccc1-n1cnc(C)c1` (single isomer, unassigned; (-)) [Example 68, (−)-[8-(3-Fluoro-2-fluoromethyl-propyl)-6-methyl-5,6,7,8-tetrahydro-9-oxa-1,6-diaza-benzocyclohepten-2-yl]-[6-methoxy-5-(4-methyl-imidazol-1-yl)-pyridin-2-yl]-amine]: the IC50 in the assay on Aβ42 (HEK cells expressing APPswe) is 9 nM; in the assay on Notch it was more than 25 µM.

Regarding `Cc1cn(-c2ccc(Nc3cc(C)c4c(n3)OC(CC(F)(F)F)CN(C)C4)nc2)cn1` (centres unmarked) [Example 1, 4,6-Dimethyl-N-(5-(4-methyl-1H-imidazol-1-yl)pyridin-2-yl)-2-(2,2,2-trifluoroethyl)-2,3,4,5-tetrahydropyrido[3,2-f][1,4]oxazepin-8-amine], the results for the concentration for half-maximal inhibition (IC50) in the assay with Aβ42 (setting [1]) and in the assay with Notch (Homo sapiens) were 225 nM and more than 50 µM, respectively.
